The values that follow come from patent publication US8334316B2, “Substituted organosulfur compounds and methods of using thereof” (ACEA Biosciences, Inc., priority 2004, dated 2012).

Broadly, the IC50 is the concentration that inhibits the measured activity by half. A low value points to greater potency.

The structures appear in SMILES notation.

For series [1], the system named is A431 cells (human epidermoid cancer cells). In words: RT-CES system cell proliferation, A431. The series is classed as cell-based. To be noted: FIG. 6B.
Protocol: A431 cells (human epidermoid cancer cells) were seeded into wells of microtiter plate devices (electronic plates, i.e., the plates comprise microelectrode sensor arrays in the wells of the plate) with an initial seeding density of 10,000 cells per well and were pre-incubated in incubator under standard cell culture conditions for about 22.3 hrs. Various concentrations of DBTS and 5-fluorouracil solutions were added into wells following the incubation period. The cell status was monitored prior to and after the compound addition using RT-CES system.
Series [2] relates to MCF7 cells. In words: Inhibition of cancer cell proliferation, IC50 of ACEA100129 (RT-CES or MTT, not specified), MCF7. Type of series: cell-based. To be noted: Homo sapiens. As for the experimental part:
(§1) The anticancer potency of DBTS and its derivatives were tested in 8 different types of human cancer cell lines using the RT-CES system and MTT assay. The 8 cancer cell lines were HT1080 (the human fibrosarcoma cell line), H460 (human non small cell lung cancer cell line), OVCAR4 (the human ovarian cancer cell line), MCF7 (human breast cancer cell line) MDA-MB231 (M231, the human breast cancer cell line) A2780 (the human […] cancer cell line) Jurkat (the human T cell leukemia cell line). The test DBTS derivatives include ACEA100107, ACEA100108, ACEA100109, ACEA100111, ACEA100115, ACEA100116, ACEA100117, ACEA100118, ACEA100119, and ACEA100120.
(§2) For the assay performed on the RT-CES system, the cells were seeded into the 16× or 96× microtiter plate devices (electronic plates, i.e., the plates comprise microelectrode sensor arrays in the wells of the plate) at the seeding density ranging from 5000 cells/well to 15,000 cells/well. The cells were incubated at 5% CO2 and 37° C. for overnight till the cell indices reached the growth phase where the cell index was between 0.8 and 1.2. […] The time-dependent IC50 values for each derivative were calculated based the dose responses of cell index value at different time points after compound treatment. […]

Series [3] concerns HT1080 cells. In words: Inhibition of cancer cell proliferation, IC50 of ACEA100129 (RT-CES or MTT, not specified), HT1080. Type of series: cell-based. To be noted: Homo sapiens, HT-1080. As for the experimental part:
as §1, §2

Series [4] concerns HELA cells. In words: Inhibition of cancer cell proliferation, IC50 of ACEA100129 (RT-CES or MTT, not specified), HELA. Type of series: cell-based. To be noted: Homo sapiens. As for the experimental part:
as §1, §2

Series [5] deals with mouse Lewis lung cancer. In words: In vivo antitumor efficacy, mouse Lewis lung cancer model, Example 2 (DBTS, CTX, Taxol reference). To be noted: 30 mg/kg/d ip x7 qd.
Series [6] concerns mouse sarcoma S180. In words: In vivo antitumor efficacy, mouse sarcoma S180 model (subcutaneously transplanted), Example 1. To be noted: 30 mg/kg/d ip x7 qd.
The subject of series [7] is mouse Lewis lung cancer. In words: In vivo antitumor efficacy, mouse Lewis lung cancer model (subcutaneously transplanted), Example 1. As for the experimental part:
Test controls. For the negative control, two groups were set up: the solvent only control group and normal saline control group. […] In the normal saline group, each mouse was administered with 0.5 ml of normal saline, once per day and for 7 or 10 consecutive days. For the positive control group, the anticancer compound, cyclophosphamide (CTX) was administered intraperitoneally at 30 mg/kg, once per day and for 7 or 10 consecutive days.
In the mouse Lewis lung cancer model, 200 mg of DBTS was dissolved in 5 mL castor oil (in polyoxyethlated version). […] The intravenous injection speed was about 0.5 mL/0.5 min.
The dosages and administration of test compounds are within the knowledge of those commonly skilled in pharmacology. For example, the test compounds may be administered by intravenous injection with a test compound solution twice per day and for 7 consecutive days. Alternatively, the test compounds may be administered by intravenous injection with a test compound solution once per day and for 10 consecutive days.
0.2 mL of the tumor cell suspension (between 4 and 8 million tumor cells) was then transplanted back into an experimental mouse by subcutaneous injection. […] Each removed solid tumor was weighted, and the tumor inhibition rate in the DBTS-treated groups and in the CTX-treated group was calculated according to the formula: Tumor inhibition rate %=(average weight of tumor in the negative control group−average weight of tumor in the compound treated group)/average weight of tumor in the negative control group×100 (2)
For the mouse Lewis lung cancer model, the Lewis lung cancer cells were subcutaneously transplanted at approximately 5 million cells per mouse. After 24 hours of the transplantation, each mouse in the test group was administered intravenously with dibenzyl trisulfide at 50, 25, or 12.5 mg/kg per day and for 10 consecutive days. For the positive control group, each mouse was administered with CTX at […] intraperitoneally per day and for 10 consecutive days. For the negative control group, each mouse was administered intravenously either with normal saline, or with the solvent for dibenzyl trisulfide at the same concentration as that in the test group per day and for consecutive 10 days. For each group, 10 mice were used.

The subject of series [8] is P388 lymphocytic leukemia. In words: Murine P388 lymphocytic leukemia model (intraperitoneal transplantation), life span. To be noted: 2 mg/kg/d iv x7 qd. Type of series: in vivo, mouse. As for the experimental part:
Both male and female mice were used.
Preparation and Administration of Test Compounds.
To prepare cancer cells for the P388 murine lymphocytic leukemia model, ascites of a P388 leukemia-bearing mouse were removed under sterile condition. The ascites were diluted in normal saline (1:6 for ascites to normal saline) to prepare cell suspension. 0.2 mL of the cell suspension was then injected intraperitoneally. […] The life span of carrier mice was determined within 30 days. The life span ratio comparing to the negative control group of the carrier mice in each compound treatment group was calculated according to the formula: Life span ratio %=average life span for the compound treatment group/average life span for the negative control group×100% (4)

Series [9] relates to A549 human lung cancer cells. In words: Apoptosis: Annexin V-Cy3 / 6-CFDA staining of A549 cells. Type of series: cell-based. To be noted: 10 nM, 24 hrs. The procedure:
The cells were incubated with the drugs for 24 hours and then washed 2× with PBS and 3× with binding buffer (10 mM HEPES, pH 7.5, 140 mM NaCl, 2.5 mM CaCl2). […] The cells were gently washed 3× in 1× binding buffer, mounted, viewed under immunofluorescent microscope and imaged using an attached CCD camera. Note that live cells show staining only with 6-CFDA (green), while necrotic cells will stain only with Annexin V-Cy3 (red). Cells starting the apoptotic process will stain both with AnnexinV-Cy3 and 6-CFDA.

The test system of series [10] is microtubules in COS cells. In words: Microtubule network in cultured COS cells (anti-tubulin immunofluorescence, confocal microscopy). The series is classed as cell-based. The procedure: Cell Culture and Immunocytochemistry. COS cells were grown in DMEM media supplemented with non-essential amino acids, 10% FBS, antibiotic-antimycotic (Gibco BRL) at 37° C. and 5.5% CO2. […] Cells were then rinsed once with warm PBS, fixed with cold methanol, rinsed again in PBS and blocked overnight at 4° C. in PBT (PBS, 1% BSA, 0.5% Triton X-100). All subsequent stains and washes were done in PBT at room temperature unless stated otherwise. Cells were stained with the anti-tubulin mouse antibody DM-1 at 1:1000 for 1 hour, washed four times for 15 minutes each and then treated with Cy-3 conjugated goat anti mouse antibody at 1:100 for 1 hour in the dark. Next, samples were washed four times for 15 minutes each in PBT in the dark followed by a final 15 minute wash in PBS in the dark. Samples were then viewed by laser scanning confocal microscopy.

`O=c1[nH]cc(F)c(=O)[nH]1` [5-fluorouracil]: the “Concentration showing inhibitory ability against proliferation” value in series [1] is not below 12.5 µM.
Consider `Cc1ccc(CSSSCc2ccc(C)cc2)cc1` [ACEA100129, Di(p-methylbenzyl)trisulfide], for which the results for the IC50 in [2], in [3] and in [4] were 2300 nM, 820 nM and 420 nM, respectively.
As to `O=P1(N(CCCl)CCCl)NCCCO1` (centres unmarked) [CTX, cyclophosphamide, reference compound], the “Animal weight (g) beginning” value in [5] is 21.1 g; in series [6] it was 19.6 g; in [7] (30 mg/kg/d ip), 19.1 g. Also, the “Animal weight (g) end” value was found to be 22.3 g in [5], 20.3 g in [6] and 20.2 g in series [7] (30 mg/kg/d ip). For the same molecule, the “Tumor weight” value in [5] is reported as 0.258 ± 0.09 g. Besides, the “tumor inhibition rate %” value in [5] (vs normal saline control) amounted to 90.75%. In addition, the “Inhibition rate (%)” value in series [6] (vs 10% solvent control) was 88.83%; in series [6] (vs normal saline control), 91.76%; in series [7] (30 mg/kg/d ip x7 qd, vs 5% solvent control), 85.83%; in series [7] (30 mg/kg/d ip x10 qd, vs normal saline control) it was 87.62%.
On to `CO[C@@]12[C@H](COC(N)=O)C3=C(C(=O)C(C)=C(N)C3=O)N1C[C@@H]1N[C@@H]12` [MMC, mitomycin C, reference compound], for which, in series [8], the “Beginning animal weight” value is recorded as 20.6 g and the “animal No. beginning/end (survivors)” value was 10/1. Further, the “Average life span X ± SD” value in series [8] (observed within 30 days) is 18.1 ± 0.15. Besides, the “Life span ratio %” value in series [8] (vs solvent control) was 186.59%.
Regarding `CC[C@]1(O)C[C@@H]2CN(CCc3c([nH]c4ccccc34)[C@@](C(=O)OC)(c3cc4c(cc3OC)N(C)[C@H]3[C@@](O)(C(=O)OC)[C@H](OC(C)=O)[C@]5(CC)C=CCN6CC[C@]43[C@@H]65)C2)C1` [vinblastine, reference compound], in series [9], the “Annexin V staining (apoptosis)” value is recorded as “strong staining of Annexin V”. In addition, the Microtubule network appearance result in [10] (4 hours exposure) was “the microtubule network begins to fall apart and the microtubules become much shorter”; in [10] (24 hours exposure, increasing dosage) it was “major cell abnormalities are widespread in the microtubule network”.
